{"source": "patent US6512003B2", "about": "“Synthetic spiroketal pyranes as potent anti-cancer agents and use” (Parker Hughes Institute, priority 1998, dated 2003)", "key": {"[1]": {"system": "human BT-20 breast cancer cells", "assay": "Apoptosis of breast cancer cells by transmission electron microscopy", "assay_type": "cell-based", "conditions": "BT-20 cells, FIG. 6", "procedure": "(§1) The effects of spiroketal pyrans on the survival of human breast cancer cells were examined in vitro. Cells were incubated at 37° C. for the indicated time periods with the title compounds. At the end of the incubation, cells were washed twice with PBS and fixed in 2% paraformaldehyde and examined by microscopy."}, "[2]": {"system": "human breast cancer cells", "assay": "Confocal laser scanning microscopy of microtubules (alpha-tubulin immunofluorescence) and mitotic index", "assay_type": "cell-based", "set-up": "microtubule organization and cell morphology: dose or concentration left out as unconfirmed", "conditions": "for microtubule organization and cell morphology: confocal microscopy, FIG. 7", "procedure": "as §1\nThe effects of SPIKET-P1 on human breast cancer cells was also examined using confocal laser scanning microscopy^14. After fixing, the cells were permeabilized and non-specific binding sites were blocked with 2.5% BSA in PBS containing 0.1% Triton X-100 for 30 minutes. Tubulin expression was examined by immunofluorescence using a monoclonal antibody against α-tubulin (Sigma Chemical Co, St. Louis, Mo.) at a dilution of 1:1000 and an lanti-mouse IgG conjugated to FITC. Cells were washed in PBS and counterstained with toto-3 (Molecular Probes Inc., Eugene, Oreg.) for 10 minutes at a dilution of 1:1000. Cells were washed again with PBS and the coverslips were mounted with Vectashield (Vector Labs, Burlingame, Calif.) and viewed with a confocal microscope (Bio-Rad MRC 1024) mounted in a Nikon Labhophot upright microscope.\nDigital images were saved on a Jaz disk and processed with Adobe Photoshop software (Adobe Systems, Mountain View, Calif.).\nVehicle-treated control cells are adherent with a well organized microtubule cytoskeleton, seen in the control (FIG. 7A) in green. […] Additionally, membrane blebbing and nuclear fragmentation was observed. Large vacuoles were present within treated cells. SPIKET-P-1 also affected the mitotic index, 2.25% of control cells were in mitosis whereas 0.0% of treated cells were in mitosis (23/1024 vs 0/1000, respectively)."}, "tubulin": {"system": "tubulin", "conditions": "cited from earlier work"}}}
{"compound": "c1ccc(COC[C@H]2CCCC3(CCC[C@H](COCc4ccccc4)O3)O2)cc1", "note": "[SPIKET-P1-P, Benzyl-protected SPIKET-P1]", "values": [{"measurement": "induction of apoptosis", "setting": "[1]", "value": "induce apoptosis in human breast cancer cells"}]}
{"compound": "OC1CC(CCOCc2ccccc2)OC2(C1)CC(O)CC(CCOCc1ccccc1)O2", "note": "(stereo not shown) [NP-25, 1,13-dibenzyloxy-5,9-dihydroxy-spiroketal]", "values": [{"measurement": "induction of apoptosis", "setting": "[1]", "value": "induce apoptosis in human breast cancer cells"}]}
{"compound": "OC[C@H]1CCCC2(CCC[C@H](CO)O2)O1", "note": "[SPIKET-P1, [(2R,8R)-8-(hydroxymethyl)-1,7-dioxaspiro[5,5]undec-2-yl]methan-1-ol]", "values": [{"measurement": "microtubule organization and cell morphology", "setting": "[2]", "value": "destruction of the microtubule organization, membrane blebbing, and nuclear fragmentation consistent with apoptosis"}, {"measurement": "microtubule organization and cell morphology", "setting": "[2]; listed as SPA-1", "value": "fewer, less organized microtubules"}, {"measurement": "mitotic index (cells in mitosis)", "setting": "[2]; treated cells 0/1000, control cells 2.25% (23/1024)", "value": 0.0, "unit": "%"}, {"measurement": "induction of apoptosis", "setting": "[1]", "value": "induce apoptosis in human breast cancer cells"}]}
{"compound": "Spongistatin", "values": [{"measurement": "inhibition of binding of vinc alkaloids / colchicin to tubulin", "setting": "tubulin", "value": "inhibit the binding of vinc alkaloids (but not colchicin) to tubulin"}]}
